# Experimental data reported in patent publication EP4603105A1, “PHARMACEUTICAL COMPOSITION CONTAINING CYCLIC COMPOUND HAVING SELECTIVE KRAS INHIBITORY EFFECT AGAINST HRAS AND NRAS” (CHUGAI SEIYAKU KABUSHIKI KAISHA, priority 2022, dated 2024).
# How the values were obtained:
# [1] = molecular target: GDP-bound NRAS wild-type protein (Homo sapiens, UniProt P01111); assay: Binding to NRAS by surface plasmon resonance (SPR), KD and KD ratio to KRAS
# In short: (§1)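 Measured at 30°C: SPR with GDP-loaded, E. coli-expressed biotin-Avi RAS captured (~100–300 RU), ascending 75 s compound injections, HBS pH 7.4 with GDP, MgCl2, 4% DMSO. KD from 1:1 fit.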
# HRAS wild-type protein = HRAS wild-type protein (Homo sapiens, UniProt P01112); assay: Binding to HRAS by surface plasmon resonance (SPR), KD and KD ratio to KRAS
# HRAS wild-type protein, sequence (P01112 whole entry): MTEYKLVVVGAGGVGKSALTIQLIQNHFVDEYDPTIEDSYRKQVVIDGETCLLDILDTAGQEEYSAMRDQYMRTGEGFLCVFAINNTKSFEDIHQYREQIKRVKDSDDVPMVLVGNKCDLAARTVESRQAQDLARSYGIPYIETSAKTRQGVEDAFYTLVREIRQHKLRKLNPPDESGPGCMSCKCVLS
# In short: as §1
# [2] = tested on: human lung cancer strain NCI-H441; assay type: cell-based
# In short: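 Signal came from […] measured per well once the reagent was added. Beforehand, cells were cultured at 37°C and 5% carbon dioxide on a compound series serially diluted in dimethyl sulfoxide.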
# [3] = ratio of KD for GDP-bound NRAS wild-type protein to KD for KRAS
# [4] = ratio of KD for HRAS wild-type protein to KD for KRAS
# GDP-bound NRAS wild-type protein, sequence (P01111 whole entry): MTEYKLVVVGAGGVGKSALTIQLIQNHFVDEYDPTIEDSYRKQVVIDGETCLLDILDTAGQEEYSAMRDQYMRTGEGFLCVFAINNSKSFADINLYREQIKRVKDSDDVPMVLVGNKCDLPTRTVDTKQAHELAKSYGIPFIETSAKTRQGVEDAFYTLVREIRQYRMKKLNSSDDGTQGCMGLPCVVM
SMILES,NRAS /KRAS ([1]; ratio of the KD value with respect to GDP-bound NRAS wild-type protein to the KD value with respect to KRAS),HRAS /KRAS (HRAS wild-type protein; ratio of the KD value with respect to HRAS wild-type protein to the KD value with respect to KRAS),IC50 [2],NRAS /KRAS ([1]; ratio of KD value for GDP-bound NRAS wild-type protein to KD value for KRAS (SPR)),HRAS /KRAS (HRAS wild-type protein; ratio of KD value for HRAS wild-type protein to KD value for KRAS (SPR)),"NRAS /KRAS [1, 3]",HRAS /KRAS (HRAS wild-type protein; [4])
CCO[C@@H]1C[C@H]2C(=O)NC3(CCC3)C(=O)N(C)[C@@H](C3CCCC3)C(=O)N(C)[C@H](C(=O)N3CCOCC3)CC(=O)N(C)[C@@H](CC)C(=O)N[C@@H]([C@@H](C)CC)C(=O)N(C)CC(=O)N(C)[C@H]3CCCCN(C3=O)[C@@H](Cc3ccc(C(F)(F)F)cc3)C(=O)N(C)CC(=O)N[C@@H](CCc3cc(F)c(C(F)(F)F)c(F)c3)C(=O)N2C1 [PP0708],B (a compound having 3 or more and less than 10 is denoted as B),B (a compound having 3 or more and less than 10 is denoted as B),0.0055 µM,,,,
CCO[C@@H]1C[C@H]2C(=O)NC3(CCC3)C(=O)N(C)[C@@H](C(CC)CC)C(=O)N(C)[C@H](C(=O)N3CCOCC3)CC(=O)N(C)[C@@H](CC3CC3)C(=O)N[C@@H]([C@@H](C)CC)C(=O)N(C)CC(=O)N(C)[C@H]3C/C=C\CCN(C3=O)[C@@H](Cc3ccc(F)cc3C)C(=O)N(C)CC(=O)N[C@@H](CCc3cc(F)c(C(F)(F)F)c(F)c3)C(=O)N2C1 [PP1526],,,0.118 µM,A (a compound having 10 or more and less than 20 is denoted as A),A (a compound having 10 or more and less than 20 is denoted as A),,
CCO[C@@H]1C[C@H]2C(=O)NC3(CCCC3)C(=O)N(C)[C@@H](C3CCCC3)C(=O)N(C)[C@H](C(=O)N3CCOCC3)CC(=O)N(C)[C@@H](CC)C(=O)N[C@@H]([C@@H](C)CC)C(=O)N(C)CC(=O)N(C)[C@H]3C[C@@H](C)CCN(C3=O)[C@@H](Cc3ccc(C(F)(F)F)cc3)C(=O)N(C)CC(=O)N[C@@H](CCc3cc(F)c(C(F)(F)F)c(F)c3)C(=O)N2C1 [PP1029],,,0.0243 µM,,,C (A compound having a KD ratio of 0.1 or more and less than 3 is denoted as C),B (a compound having 3 or more and less than 10 is denoted as B)
CCO[C@@H]1C[C@H]2C(=O)N(C)C3(CC(C)(C)C3)C(=O)N(C)[C@@H](C3CCCC3)C(=O)N(C)[C@H](C(=O)N(C)C)CC(=O)N(C)[C@H]3CCCC/C=C/c4ccc(cc4)C[C@@H](C(=O)N(C)CC(=O)N[C@@H](CCc4ccc(Cl)c(Cl)c4)C(=O)N2C1)N1CC/C=C\C[C@@H](C1=O)N(C)C(=O)CN(C)C(=O)[C@H]([C@@H](C)CC)NC3=O [PP3062],,,0.0063 µM,,,A (a compound having 10 or more and less than 20 is denoted as A),A (a compound having 10 or more and less than 20 is denoted as A)
CCO[C@@H]1C[C@H]2C(=O)NC3(CCC3)C(=O)N(C)[C@@H](C3CCCC3)C(=O)N(C)[C@H](C(=O)N3CCOCC3)CC(=O)N(C)[C@@H](Cc3ccccc3Cl)C(=O)N[C@@H]([C@@H](C)CC)C(=O)N(C)CC(=O)N(C)[C@H]3CCCCCN(C3=O)[C@@H](Cc3ccc(C(F)(F)F)cc3)C(=O)N(C)CC(=O)N[C@@H](CCc3cc(F)c(C(F)(F)F)c(F)c3)C(=O)N2C1 [PP0929],,,0.317 µM,,,A (a compound having 10 or more and less than 20 is denoted as A),B (a compound having 3 or more and less than 10 is denoted as B)
CCC[C@H]1C(=O)N[C@@H]([C@@H](C)CC)C(=O)N(C)CC(=O)N(C)[C@H]2C/C=C\CCN(C2=O)[C@@H](Cc2ccc(C(F)(F)F)cc2)C(=O)N(C)CC(=O)N[C@@H](CCc2cc(Cl)c(C(F)(F)F)c(Cl)c2)C(=O)N2C[C@H](OCC)C[C@H]2C(=O)NC2(CC(C)(C)C2)C(=O)N(C)[C@@H](C2CCCC2)C(=O)N(C)[C@H](C(=O)N(C)C)CC(=O)N1C [PP2859],,,0.0068 µM,,,A (a compound having 10 or more and less than 20 is denoted as A),A (a compound having 10 or more and less than 20 is denoted as A)
